Measured values published in article PMC9814779, “A triple farnesoid X receptor and peroxisome proliferator-activated receptor α/δ activator reverses hepatic fibrosis in diet-induced NASH in mice” (Communications Chemistry, 2020).

Key:
[1] = system: choline-deficient, L-amino acid-defined, high-fat diet-induced NASH in mice; design: method as in PMID 29164820; conditions: cited from earlier work
STAM NASH = conditions: cited from earlier work
[2] = system: FXR- and PPAR-regulated gene expression in HepG2 cells; assay: FXR- and PPAR-regulated gene expression in HepG2 cells (qRT-PCR); assay type: cell-based, human; conditions: HepG2, 1 µM, 12 h, vs. vehicle-treated cells
Method: HepG2 cells (DSMZ) were grown in DMEM high glucose, supplemented with 10% FCS, 1 mM SP, penicillin (100 U/mL), and streptomycin (100 μg/mL) at 37 °C and 5% CO2 and seeded in 6-well plates (2 × 10^6 per well). After 24 h, medium was changed to Minimal Essential Medium supplemented with 1% charcoal-stripped FCS, penicillin (100 U/mL), streptomycin (100 μg/mL), and 2 mM L-glutamine. After an additional 24 h, cells were incubated with test compound 41 (0.1 µM, 0.3 µM, 1 μM), OCA (1 μM), or elafibranor (1 µM) dissolved in the same medium with 0.1% DMSO or medium with 0.1% DMSO alone as untreated control for 12 h, harvested, washed with cold phosphate-buffered saline (PBS), and then directly used for RNA extraction. C2C12 cells (American Type Culture Collection, ATCC) were grown in DMEM high glucose, supplemented with 10% FCS, 1 mM SP, penicillin (100 U/mL), and streptomycin (100 μg/mL) at 37 °C and 5% CO2 and seeded in 6-well plates (1 × 10^6 per well). Upon reaching confluence, medium was changed to Eagle’s Minimal Essential Medium supplemented with 2% horse serum, penicillin (100 U/mL), streptomycin (100 μg/mL), and 2 mM L-glutamine. Cells were then differentiated in this medium for 5 days before incubation with test compounds 41 (1 μM) or L165,041 (1 μM) dissolved in the same medium with 0.1% DMSO or medium with 0.1% DMSO alone as untreated control for 8 h. Cells were harvested, washed with cold PBS, and then directly used for RNA extraction. Total RNA was extracted from HepG2 cells or C2C12 cells using the total RNA Mini Kit (R6834-02, Omega Bio-Tek, Inc., Norcross, GA, USA). Two micrograms of extracted RNA were then reverse-transcribed into cDNA with the High-Capacity cDNA Reverse Transcription Kit (4368814, Thermo Fischer Scientific, Inc.). FXR- and PPAR-regulated gene expression was then studied by quantitative real-time PCR (qRT-PCR) analysis with a StepOnePlus System (Life Technologies, Carlsbad, CA, USA) using PowerSYBRGreen (Life Technologies; 12.5 μL per well). Each sample was set up in duplicates and repeated in four independent experiments. Data were analyzed by the comparative ΔΔCT method with glyceraldehyde 3-phosphate dehydrogenase (GAPDH) as reference gene. The following primers were used for HepG2 cells (human genes): hGAPDH: 5 ′-ATATGATTCCACCCATGGCA (fw), 5′-GATGATGACCCTTTTGGCTC (rev); hSHP: 5′-GCTGTCTGGAGTCCTTCTGG (fw), 5′-CCAATGATAGGGCGAAAGAAGAG (rev); hCYP7A1: 5′-CACCTTGAGGACGGTTCCTA (fw), 5′-CGATCCAAAGGGCATGTAGT (rev); hBSEP: 5′-CATGGTGCAAGAAGTGCTGAGT (fw), 5′-AAGCGATGAGCAACTGAAATGAT (rev); hACOX: 5′-ACT CGC AGC CAG CGT TAT G (fw), 5′-AGG GTC AGC GAT GCC AAA C (rev); hPDK4: 5′-AGAGCCTGATGGATTTGGTG (fw), 5′-GCTTGGGTTTCCTGTCTGTG (rev); hCPT1: 5′-ACAGTCGGTGAGGCCTCTTAT (fw), 5′-TCTTGCTGCCTGAATGTGAGT (rev); hFGF21: 5′-ATGGATCGCTCCACTTTGACC (fw), 5′-GGGCTTCGGACTGGTAAACAT (rev). The following primers were used for C2C12 cells (murine genes)[36]: mGAPDH: 5′-CGACTTCAACAGCAACTCCCACTCTTCC (fw), 5′-TGGGTGGTCCAGGGTTTCTTACTCCTT (rev); mPCK: 5′-TGTTTACTGGGAAGGCATCG (fw), 5′-CAGAATCTCGAGTTGGGATGG (rev); mGLUT3: 5′-CGTCCTTGAAGATTCCTGTTGA (fw), 5′-GTC ACC CAA CTA CGT CCA G (rev); mLPL: 5′-GTCAGGTTCTCTCTTGTACAGG (fw), 5′-TCTAACTGCCACTTCAACCAC (rev).

HEK293T and U2OS cells = assay: Multiplex high-content live-cell toxicity assay; assay type: cell-based; conditions: seven concentrations between 100 nM and 100 µM; 2, 12 and 24 h
Method: Before proof-of-concept in vivo evaluation, we profiled stability and cytotoxicity of the triple modulator 41 in vitro. […] To determine cytotoxicity, we employed a multiplex high-content life-cell imaging screen[24] on HEK293T and U2OS cells. For this, the cells were treated with fluorescent probes to detect Annexin V as apoptosis marker (Annexin V Alexa488), dead cells (Yo-Pro3), and DNA/nucleus (Hoechst33342). Cells were then incubated with 41, OCA, or elafibranor at seven concentrations between 100 nM and 100 µM, and cell health was determined by fluorescence imaging after 2, 12, and 24 h (Fig. 6g–i and Supplementary Fig. 5).
Supplementary Methods for in Vitro Characterization
Cytotoxicity was assessed in a high content screen on two different cell lines, HEK293T (ATCC® CRL-1573™) and U2OS (ATCC®HTB-96™), essentially as described previously6. In brief, cells were cultured in DMEM plus L-Glutamine (high glucose) supplemented with 10 % FBS (Gibco) and Penicillin/Streptomycin (Gibco). […]
After 2 h, 12 h and 24 h, cellular shape and fluorescence was analyzed on an automated, high-content confocal microscope (CQ1, Yokogawa). […]
50 ms, 40%; bright field, 300ms, 100% transmission, one centered field per well, 7 z stacks per well with 55 µm spacing. Images were analyzed with the Pathfinder software (Yokogawa). Cells were detected and gated as previously described6. […]
The solubilized test compound (5 μL, final concentration 10 μM in phosphate buffer (0.1 M, pH 7.4)) was preincubated at 37 °C in 432 μL of phosphate buffer (0.1 M, pH 7.4) together with a 50 μL NADPH regenerating system (30 mM glucose-6-phosphate, 4 U/mL glucose-6-phosphate dehydrogenase, 10 mM NADP, 30 mM MgCl2). […] The supernatants were analyzed and test compound was quantified by HPLC: mobile phase: MeOH 83%/H2O 17%/formic acid 0.1%; flow-rate: 1 mL/min; stationary phase: MultoHigh Phenyl phase, 5 μm, 250×4, precolumn, phenyl, 5 μm, 20×4; detection wavelength: 330 and 254 nm; injection volume: 50 μL. […]

[3] = system: diet-induced mouse model of NASH; conditions: cited from earlier work
[4] = system: (foz/foz) mice under atherogenic diet; conditions: without a pronounced effect on hepatic inflammation; cited from earlier work
[5] = molecular target: T1, human PPARα ligand-binding domain (Gal4 chimera) (Homo sapiens, UniProt Q07869); assay: Gal4 hybrid reporter gene assay, PPARα; assay type: cell-based; design: Emax: dose or concentration left out as unconfirmed
T1 construct: coding for the hinge region and LBD of the canonical isoform of the respective nuclear receptor; expressed in transfected cells; host or cells: HEK293T
T1 sequence (Q07869 239-466 limits assumed): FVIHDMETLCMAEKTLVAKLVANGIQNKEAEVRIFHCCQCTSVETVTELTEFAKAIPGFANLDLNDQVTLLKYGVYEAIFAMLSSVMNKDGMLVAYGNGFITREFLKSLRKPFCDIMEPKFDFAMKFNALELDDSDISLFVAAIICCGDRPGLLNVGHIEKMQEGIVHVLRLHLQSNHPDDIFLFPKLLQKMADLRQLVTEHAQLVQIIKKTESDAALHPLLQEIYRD

[6] = molecular target: T2, human PPARδ ligand-binding domain (Gal4 chimera) (Homo sapiens, UniProt Q03181); assay: Gal4 hybrid reporter gene assay, PPARδ; assay type: cell-based; design: Emax: dose or concentration left out as unconfirmed
T2 construct: coding for the hinge region and LBD of the canonical isoform of the respective nuclear receptor; expressed in transfected cells; host or cells: HEK293T
T2 sequence (Q03181 211-439 limits assumed): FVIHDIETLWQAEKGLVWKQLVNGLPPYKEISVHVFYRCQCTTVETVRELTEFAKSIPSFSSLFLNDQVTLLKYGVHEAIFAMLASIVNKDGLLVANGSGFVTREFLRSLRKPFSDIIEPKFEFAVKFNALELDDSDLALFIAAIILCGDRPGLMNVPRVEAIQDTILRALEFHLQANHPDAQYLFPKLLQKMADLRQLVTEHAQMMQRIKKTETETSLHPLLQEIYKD

[7] = molecular target: T3, human PPARγ ligand-binding domain (Gal4 chimera) (Homo sapiens, UniProt P37231); assay: Gal4 hybrid reporter gene assay, PPARγ; assay type: cell-based; design: Emax: dose or concentration left out as unconfirmed
T3 construct: coding for the hinge region and LBD of the canonical isoform of the respective nuclear receptor; expressed in transfected cells; host or cells: HEK293T
T3 sequence (P37231 238-503 limits assumed): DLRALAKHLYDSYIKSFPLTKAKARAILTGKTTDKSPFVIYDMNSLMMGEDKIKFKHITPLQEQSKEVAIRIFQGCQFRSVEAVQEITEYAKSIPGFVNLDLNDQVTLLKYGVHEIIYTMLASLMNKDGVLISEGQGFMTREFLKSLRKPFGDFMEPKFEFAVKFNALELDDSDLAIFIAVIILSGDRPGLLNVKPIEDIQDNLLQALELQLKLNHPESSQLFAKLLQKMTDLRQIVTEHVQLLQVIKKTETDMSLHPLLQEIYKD

[8] = molecular target: T4, human FXR:retinoid X receptor (RXR) heterodimer (Homo sapiens, UniProt Q96RI1); assay: Full-length FXR reporter gene assay (BSEP response element) in HeLa cells; assay type: cell-based; design: Emax: dose or concentration left out as unconfirmed; conditions: HeLa
T4 construct: pcDNA3-hFXR[32] and pSG5-hRXR[33] served for receptor overexpression in the full-length FXR assay; expressed in transfected cells; host or cells: HeLa
T4 sequence (P19793 whole entry): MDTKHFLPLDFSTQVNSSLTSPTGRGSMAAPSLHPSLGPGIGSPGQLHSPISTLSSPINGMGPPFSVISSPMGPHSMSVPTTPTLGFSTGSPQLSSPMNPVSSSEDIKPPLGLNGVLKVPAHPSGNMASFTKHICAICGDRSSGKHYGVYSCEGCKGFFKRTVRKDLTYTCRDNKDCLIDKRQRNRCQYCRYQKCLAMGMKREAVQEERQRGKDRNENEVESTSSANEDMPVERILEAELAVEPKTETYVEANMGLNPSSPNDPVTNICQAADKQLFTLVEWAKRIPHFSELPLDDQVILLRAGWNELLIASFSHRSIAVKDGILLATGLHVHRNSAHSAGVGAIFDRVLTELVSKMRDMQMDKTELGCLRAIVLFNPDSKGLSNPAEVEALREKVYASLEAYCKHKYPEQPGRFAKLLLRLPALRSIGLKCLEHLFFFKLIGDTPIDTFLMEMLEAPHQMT
T4 sequence (Q96RI1 whole entry): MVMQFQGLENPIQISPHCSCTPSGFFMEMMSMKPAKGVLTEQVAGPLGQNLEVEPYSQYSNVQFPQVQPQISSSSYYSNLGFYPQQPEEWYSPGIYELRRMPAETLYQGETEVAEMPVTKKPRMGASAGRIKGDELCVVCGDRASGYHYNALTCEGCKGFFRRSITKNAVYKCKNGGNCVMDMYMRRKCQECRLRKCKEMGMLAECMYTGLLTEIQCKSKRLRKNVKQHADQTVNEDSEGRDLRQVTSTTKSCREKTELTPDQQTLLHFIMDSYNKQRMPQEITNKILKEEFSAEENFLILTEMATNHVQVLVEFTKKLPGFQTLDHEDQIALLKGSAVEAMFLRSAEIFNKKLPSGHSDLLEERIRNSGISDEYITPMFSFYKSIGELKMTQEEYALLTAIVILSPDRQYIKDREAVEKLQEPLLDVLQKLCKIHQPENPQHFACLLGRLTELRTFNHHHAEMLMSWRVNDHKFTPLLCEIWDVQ

[9] = system: nuclear receptors related to PPARs and FXR (LXRα/β, RXRα/β/γ, RARα/β/γ, VDR, CAR); conditions: previous studies; cited from earlier work

For `CCO[C@@H](Cc1ccc(OCCn2c(C)ccc2-c2ccc(SC)cc2)cc1)C(=O)O` [saroglitazar], the anti-steatosis efficacy [1] is listed as “stronger anti-steatosis efficacy than the selective agents fenofibrate (PPARα) and pioglitazone (PPARγ)”.

In the case of `CC[C@@H](Oc1cccc(CN(CCCOc2ccc(OC)cc2)c2nc3ccccc3o2)c1)C(=O)O` [pemafibrate], the “effects in STAM NASH” value (STAM NASH) is listed as “counter hepatocyte ballooning in STAM NASH without affecting hepatic steatosis and inflammation”.

With `CSc1ccc(C(=O)/C=C/c2cc(C)c(OC(C)(C)C(=O)O)c(C)c2)cc1` [elafibranor] the “mRNA expression of FXR-regulated genes (BSEP, SHP, CYP7A1)” value [2] was “no effect on FXR activity”, the “mRNA expression of PPAR-regulated genes (ACOX, PDK4, CPT1, FGF21)” value [2] was “strongly promoted the expression of PPAR-regulated genes” and the “cytotoxicity (cell health, apoptosis, necrosis, lysis)” value (HEK293T and U2OS cells) was “non-toxic up to 100 µM concentration over 24 h”. For the same molecule, the anti-steatotic effect ([3]; OCA 30 mg/kg, OCA/elafibranor 30 mg/kg + 10 mg/kg, elafibranor 10 mg/kg) was “less pronounced” and the anti-fibrotic activity ([3]; equivalent, previously reported study) was “only weak anti-fibrotic activity compared to vehicle”.

In the case of `CCO[C@H](COc1ccc(C(F)(F)F)cc1)CSc1ccc(OCC(=O)O)c(C)c1` [seladelpar], the “effects in (foz/foz) mice under atherogenic diet” value [4] is listed as “improved steatosis and hepatocyte ballooning”.

`O=C(O)Cc1cccc(NC(=O)c2ccccc2NC(=O)c2ccc3ccccc3c2)c1` [compound 5] showed an EC50 ([5]; EC50 [μM] PPARα, HEK293T, mean ± SEM, n = 3) of 5 ± 1 µM, an Emax ([5]; read-out: max. rel. act. PPARα) of 37% and an EC50 ([6]; EC50 [μM] PPARδ, HEK293T, mean ± SEM, n = 3) of 4.9 ± 0.9 µM. For the same molecule, the Emax ([6]; read-out: max. rel. act. PPARδ) was 34%, the EC50 [7] was 16 ± 1 µM and the Emax ([7]; read-out: max. rel. act. PPARγ) was 14%. For the same molecule, the Emax ([8]; read-out: max. rel. act. FXR) was 21%, the EC50 ([8]; mean ± SEM, n = 3, read-out: EC50 [μM] FXR) was 2.5 ± 0.2 µM and the “selectivity over related nuclear receptors” value [9] was “selective over related nuclear receptors”.
